# Data from patent US20230227506A1, “Fatty Acid Complexes Of Coronavirus Spike Protein And Their Use” (priority 2020, published 2023).
# Entries after “also recorded” stand apart in the source; their conditions may differ. Read-outs that look alike come from different tables or passages of the source.
# Key:
# SARS-CoV-2 Spike protein [1] = type: cell-based
# SARS-CoV-2 Spike protein [2] = type: binding
# [3] = target: T1, SARS-CoV-2 Spike Protein receptor binding domain (RBD) (Severe acute respiratory syndrome coronavirus 2, UniProt P0DTC2)
# T1 construct: SARS-CoV-2 RBD (amino acids R319 to F541); made in house; host or cells: Hi5 insect cells, MultiBac baculovirus
# [4] = test system: SARS-CoV-2 reporter virus (rSARS-CoV-2/Wuhan/ORF7-tGFP); type: cell-based
# [5] = test system: SARS-CoV-2 S glycoprotein; type: binding
# Caco-2-ACE2 cells = settings: 50 uM linoleic acid
# [6] = cited from earlier work
# coronaviruses = settings: reference (4); cited from earlier work
SMILES,Minivirus-ACE2 cell binding compared to ApoS Miniviruses (SARS-CoV-2 Spike protein [1]),Binding of FFA in Spike protein verified by LC-MS/MS (SARS-CoV-2 Spike protein [2]),Binding to immobilized RBD quantified by SPR [3],Effect on SARS-CoV-2 replication factories [4],Effect on viral particles [4],Binding to S in the trimer seen by cryo-EM [5],Cell death of treated infected cells (Caco-2-ACE2 cells),Water solubility [6],Water solubility (in words) [6],Water solubility (in words) ([6]; listed as Linoleic Acid),Virus replication on exogenous supplement (coronaviruses)
"CCCCCCCCCCCCCCCC(=O)O [PA, palmitic acid]",did not significantly reduce,not,–,–,–,–,–,–,–,–,–
"CCCCCCCC/C=C\CCCCCCCC(=O)O [OA, oleic acid]",able to reduce,successfully verified,High affinity binding,–,–,–,–,–,–,–,–
"CCCCC/C=C\C/C=C\CCCCCCCC(=O)O [LA, linoleic acid]",able to reduce,successfully verified,high affinity binding,disrupted; also recorded: wrecked,visible deformation and destruction,tightly binds,significant cell death was not observed,about 100 mg/l,extremely low water solubility,virtually insoluble in water,suppressed virus replication
"CCCCC/C=C\C/C=C\C/C=C\C/C=C\CCCC(=O)O [AA, arachidonic acid]",able to reduce,–,–,–,–,–,–,–,–,–,suppressed virus replication
